Legend:
[1] = system: heterosexual men suffering from primary premature ejaculation; assay: Double-blind randomized crossover study of orally administered active agents in treating premature ejaculation (efficacy measures); format: in vivo; design: Anxiety score, Median: scale not given here; conditions: for comparison between treatments in ejaculation latency time and sexual satisfaction score, in words: Wilcoxon signed rank test; for IVELT, Range / Anxiety score, Range: after four-week as-needed oral treatment; for IVELT, Range: baseline range 0.5-1.5; for Anxiety score, Range: baseline range 5-25; for Anxiety score, Median / Sexual satisfaction score, Median / Sexual satisfaction score, Range: after four-week treatment; for Anxiety score, Median: oral, as needed 3 to 5 hours before intercourse, clomipramine 25 mg, sertraline 50 mg, paroxetine 20 mg, sildenafil citrate 50 mg, baseline median 12; for median intravaginal ejaculation latency time: after four-week treatments, pretreatment median 1 minutes, all P<0.0001; for Sexual satisfaction score, Median / Sexual satisfaction score, Range: first nine items of EDITS questionnaire; for Sexual satisfaction score, Median: higher scores = greater satisfaction; for IVELT, Median: intravaginal ejaculation latency time after four-week as-needed oral treatment, baseline median 1; for delay of intravaginal ejaculation latency time, in words: treatment on an as needed basis; for IVELT during washout periods, Median / IVELT during washout periods, Range: two-week washout period after the treatment
Experimental: (§1) A double-blind randomized crossover study was performed with 31 heterosexual men suffering from primary premature ejaculation, defined for the purpose of the study as an intravaginal ejaculation latency time (IVELT) of less than 2 minutes. Exclusion criteria included the following: (a) history of a psychiatric disorder; (b) current physical illness; (c) previous surgery or drug therapy with an active agent known to affect sexual function; (d) current substance abuse; (e) patients with secondary premature ejaculation combined with erectile dysfunction. All patients were asked not to use condoms or topical penile applications.
(§2) Treatment phases comprised five four-week consecutive treatment periods, each separated by a two-week washout period. […] The patients were randomly assigned to receive clomipramine hydrocloride (25 mg), sertraline hydrochloride (50 mg), paroxetine hydrochloride (20 mg), or sildenafil citrate (50 mg), or instructed to use the pause-squeeze technique developed by Masters and Johnson (Masters and Johnson, Human Sexual Inadequacy, Little, Brown & Company, Boston, Mass., 1970). The drugs were administered as needed 3 to 5 hours before planned intercourse and not more than twice a week. The pause-squeeze technique was used during intercourse. Each patient was randomly assigned to receive any of the available treatments as the first treatment and a sequence of treatment regimens. The assignment was unknown by the patient. Subjects were asked to complete a questionnaire regarding intravaginal ejaculation latency time of the last two consecutive experiences of intercourse, frequency of intercourse and possible side effects. The first nine items of the sexual satisfaction questionnaire designed by Althof et al. (Althof et al.(1999), “EDITS: Development of Questionnaires for Evaluating Satisfaction with Treatment for Erectile Dysfunction,” Urology 53:[…]) was used to measure the degree of sexual satisfaction, with higher scores indicating greater satisfaction. All measurements were obtained before treatment, after each treatment and after each washout period. Twenty healthy men who reported a sexual history free of symptoms of premature ejaculation served as a control group.
(§3) Statistical analysis: The variables in this study were statistically processed using the SPSS program for MicroSoft Windows®, standard version, release 8.0. The data were subjected to the Kolmogorov-Smirnov one-sample test, to test for normal distribution. […] Nonparametric statistical tests were used to assess differences in the measurements. Friedman's two-way analysis of variance was used for comparison between all the treatment periods. Wilcoxon signed rank test was used for evaluation of measures between baseline and after each treatment and also between every two treatment periods. The relationship between parameters was quantified by using the Spearman rank correlation coefficient. Chi-square and Fisher exact tests were used for comparison of the incidence of side effects among different treatments. Student's t-test and Chi-square test were used for comparison between the study group and control group. A two-tailed P-value <0.05 was considered significant.

[2] = system: heterosexual men suffering from primary premature ejaculation; conditions: male, human, in vivo, 4 weeks; for No. patients with side effects / patients with side effects (%): po
Experimental: as §1, §2, §3

Structure (SMILES)	comparison between treatments in ejaculation latency time and sexual satisfaction score, in words [1]	IVELT, Range [1]	Anxiety score, Range [1]	Anxiety score, Median [1]	median intravaginal ejaculation latency time [1]	Sexual satisfaction score, Median [1]	Sexual satisfaction score, Range [1]	IVELT, Median [1]	patients with prolongation of IVELT (%) ([1]; of 31 men)	delay of intravaginal ejaculation latency time, in words [1]	IVELT during washout periods, Median [1]	IVELT during washout periods, Range [1]	Side effects (no.): drowsiness [2]	Side effects (no.): dry mouth [2]	Side effects (no.): nausea [2]	No. patients with side effects [2]	patients with side effects (%) [2]	also measured
CN(C)CCCN1c2ccccc2CCc2ccc(Cl)cc21 [Clomipramine, clomipramine]	more or less equivalent to each other	(1-8) min	(4-22)	11	4 min	11	(0-25)	4 min	71%	statistically significant and clinically relevant delay	1 min	(0.5-1.5) min	1	3	1	7	25%	Side effects (no.): sleepiness [2]: 2
Fc1ccc([C@@H]2CCNC[C@H]2COc2ccc3c(c2)OCO3)cc1 [Paroxetine, paroxetine]	superior to the pause-squeeze technique	(2-10) min	(5-23)	9	4 min	12	(0-29)	4 min	80.6%	statistically significant and clinically relevant delay	1 min	(0.5-2) min	–	2	1	5	17.2%	comparison between treatments in ejaculation latency time and sexual satisfaction score, in words ([1]; listed as paroxetine): more or less equivalent to each other; Side effects (no.): yawning [2]: 2
CN[C@H]1CC[C@@H](c2ccc(Cl)c(Cl)c2)c2ccccc21 [Sertraline, sertraline]	more or less equivalent to each other	(1-10) min	(5-22)	11	3 min	10	(0-31)	3 min	71.2%	statistically significant and clinically relevant delay	1 min	(0.5-2) min	1	–	1	3	10.3%	Side effects (no.): anorexia [2]: 1
CCCc1nn(C)c2c(=O)[nH]c(-c3cc(S(=O)(=O)N4CCN(C)CC4)ccc3OCC)nc12 [Sildenafil, 5-[2-ethoxy-5-(4-methyl-1-piperazinylsulphonyl)phenyl]-1-methyl-3-n-propyl-1,6-dihydro-7H-pyrazolo[4,3-dipyrimidin-7-one]]	–	(5-30) min	(4-15)	8	15 min	30	(17-34)	15 min	over 90%	statistically significant and clinically relevant delay	1.75 min	(0.5-8) min	–	–	–	5	17.9%	median IVELT, median sexual satisfaction score and median IVELT during the washout period, according to Friedman's test, in words ([1]; comparison between all treatment periods): significant increase; effectiveness in the treatment of premature ejaculation, in words ([1]; in vivo): highly effective; patients with prolongation of IVELT (number of patients) ([1]; of 31 men): 28 patients; patients with prolongation of IVELT (%) ([1]; of 31 men, listed as sildenafil): 90.3%; factor by which IVELT was increased, on average ([1]; versus pretreatment): 15; Side effects (no.): flushing [2]: 2; Side effects (no.): headache [2]: 2; Side effects (no.): nasal congestion [2]: 1

Reference: patent US6403597B1, “Administration of phosphodiesterase inhibitors for the treatment of premature ejaculation” (Vivus, Inc., priority 1997, dated 2002)
